According to PMC7522027 (Disease Models & Mechanisms, 2020):
Changes are numbered by the printed parent chain. pIC50: −log10 of the molar value.

What was measured:
[1] = target: T1, caALK2 (Homo sapiens, UniProt Q04771, Q207D); test: caALK2-induced SMAD1/5 phosphorylation in HEK 293T cells; assay type: cell-based; conditions: cercosporamide 1-10 µM, LDN193189 200 nM
T1 construct: expressed in transfected cells; host or cells: HEK 293T
T1 sequence (Q04771 21-509 Q207D): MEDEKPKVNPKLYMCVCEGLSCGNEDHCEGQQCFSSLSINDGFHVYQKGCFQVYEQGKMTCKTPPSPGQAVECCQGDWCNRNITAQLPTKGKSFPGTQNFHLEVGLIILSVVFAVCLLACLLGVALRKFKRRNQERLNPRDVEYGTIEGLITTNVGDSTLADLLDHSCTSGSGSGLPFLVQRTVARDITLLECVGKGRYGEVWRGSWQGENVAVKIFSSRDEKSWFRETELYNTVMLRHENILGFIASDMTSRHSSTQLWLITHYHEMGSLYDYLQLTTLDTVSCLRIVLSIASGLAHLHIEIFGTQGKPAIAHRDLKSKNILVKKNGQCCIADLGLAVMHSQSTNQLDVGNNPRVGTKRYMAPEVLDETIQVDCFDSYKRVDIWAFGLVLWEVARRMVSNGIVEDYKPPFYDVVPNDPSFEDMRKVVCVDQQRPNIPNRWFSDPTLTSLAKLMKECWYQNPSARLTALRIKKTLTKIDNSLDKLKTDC
Description: (§1) HepG2 or HEK 293T cells were lysed in Laemmli sample buffer. Proteins were separated by sodium dodecyl sulfate polyacrylamide gel electrophoresis (SDS-PAGE) and transferred onto […] polyvinylidene difluoride (PVDF) membrane (IPVH00010, Merck Millipore). Membranes were blocked using 5% non-fat dry milk in Tris-buffered saline with 0.1% Tween 20 (655204, Merck Millipore) and probed with the respective primary and secondary antibodies. The signal was detected using Clarity™ Western ECL Substrate (1705060, Bio-Rad) and ChemiDoc Imaging System (17001402, Bio-Rad). The antibodies used for immunoblotting were raised against the following proteins: phospho-SMAD1/5/8 ([Persson et al., 1998]; 1:1000), SMAD1 (Cell Signaling Technology, #6944; 1:1000), GAPDH (Merck Millipore, #G8795; 1:5000) and hemagglutinin (HA; Roche, #12CA5; 1:1000).
(§2) For experiments with the caALK type I receptor constructs, HEK 293T cells were seeded in 24-well plates at ∼90% confluency and transfected with the DNA expression constructs in the presence of PEI. Thirty hours after transfection, the cells were added to serum-starved medium and treated with compounds for 16 h (overnight). Subsequently, the cells were washed with PBS and lysed in Laemmli sample buffer. […]

[2] = target: T2, ACV-R1B (ALK4) (Homo sapiens, UniProt P36896); test: radiometric protein kinase assay, ALK4; assay type: biochemical; conditions: [ATP] = 1 μM; Fig. 7C
T2 construct: purchased ProQinase GmbH (Freiburg, Germany); host or cells: bacteria (so in the source)
T2 sequence (P36896 24-505): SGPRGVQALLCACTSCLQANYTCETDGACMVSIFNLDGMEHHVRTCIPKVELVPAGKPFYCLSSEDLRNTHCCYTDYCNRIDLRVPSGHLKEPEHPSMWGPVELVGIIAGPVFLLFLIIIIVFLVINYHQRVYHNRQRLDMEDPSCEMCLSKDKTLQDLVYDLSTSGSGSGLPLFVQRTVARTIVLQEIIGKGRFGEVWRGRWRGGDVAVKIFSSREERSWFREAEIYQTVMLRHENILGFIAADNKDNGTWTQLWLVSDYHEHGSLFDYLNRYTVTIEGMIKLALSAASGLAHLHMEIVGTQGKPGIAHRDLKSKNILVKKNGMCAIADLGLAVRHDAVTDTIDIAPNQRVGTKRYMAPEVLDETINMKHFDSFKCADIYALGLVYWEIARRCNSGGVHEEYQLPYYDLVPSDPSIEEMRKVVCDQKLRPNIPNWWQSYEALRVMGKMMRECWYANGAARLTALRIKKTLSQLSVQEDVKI
Method: (§3) IC50 values were calculated using Prism 5.04 for Windows (GraphPad, San Diego, CA, USA; www.graphpad.com). The mathematical model used was ‘Sigmoidal response (variable slope)’ with parameters ‘top’ fixed at 100% and ‘bottom’ at 0%. The fitting method used was a least-squares fit.

[3] = target: T3, caALK3 (Homo sapiens, UniProt P36894, Q233D); test: caALK3-induced SMAD1/5 phosphorylation in HEK 293T cells; assay type: cell-based; conditions: cercosporamide 1-10 µM, LDN193189 200 nM
T3 construct: expressed in transfected cells; host or cells: HEK 293T
T3 sequence (P36894 24-532 Q233D): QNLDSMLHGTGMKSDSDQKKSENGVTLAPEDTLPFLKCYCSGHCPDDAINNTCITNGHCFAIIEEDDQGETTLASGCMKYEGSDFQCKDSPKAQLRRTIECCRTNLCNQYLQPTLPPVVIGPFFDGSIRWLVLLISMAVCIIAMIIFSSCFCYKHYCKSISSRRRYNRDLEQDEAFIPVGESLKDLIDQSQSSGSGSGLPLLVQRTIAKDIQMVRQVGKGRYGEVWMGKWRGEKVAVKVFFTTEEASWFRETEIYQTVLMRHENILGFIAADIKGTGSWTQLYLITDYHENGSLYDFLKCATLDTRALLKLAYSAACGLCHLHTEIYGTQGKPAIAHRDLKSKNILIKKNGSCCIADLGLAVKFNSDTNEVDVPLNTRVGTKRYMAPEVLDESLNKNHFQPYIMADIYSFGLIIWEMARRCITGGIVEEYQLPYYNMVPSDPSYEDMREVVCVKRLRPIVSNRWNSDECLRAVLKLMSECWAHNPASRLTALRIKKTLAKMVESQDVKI
Description: as §1, §2

[4] = target: T4, ACV-R1 (ALK2) (Homo sapiens, UniProt Q04771); test: radiometric protein kinase assay, ALK2; assay type: biochemical; conditions: [ATP] = 3 μM; Fig. 7B
T4 construct: purchased ProQinase GmbH (Freiburg, Germany); host or cells: bacteria (so in the source)
T4 sequence (Q04771 21-509): T1 sequence (Q04771 21-509 Q207D) with D187Q
Method: as §3

[5] = target: T5, MEK (MEK1 wt) (Homo sapiens, UniProt Q02750); test: radiometric protein kinase assay, MEK; assay type: biochemical; conditions: [ATP] = 3 μM; Fig. 7H
T5 construct: purchased ProQinase GmbH (Freiburg, Germany); host or cells: bacteria (so in the source)
T5 sequence (Q02750 whole entry): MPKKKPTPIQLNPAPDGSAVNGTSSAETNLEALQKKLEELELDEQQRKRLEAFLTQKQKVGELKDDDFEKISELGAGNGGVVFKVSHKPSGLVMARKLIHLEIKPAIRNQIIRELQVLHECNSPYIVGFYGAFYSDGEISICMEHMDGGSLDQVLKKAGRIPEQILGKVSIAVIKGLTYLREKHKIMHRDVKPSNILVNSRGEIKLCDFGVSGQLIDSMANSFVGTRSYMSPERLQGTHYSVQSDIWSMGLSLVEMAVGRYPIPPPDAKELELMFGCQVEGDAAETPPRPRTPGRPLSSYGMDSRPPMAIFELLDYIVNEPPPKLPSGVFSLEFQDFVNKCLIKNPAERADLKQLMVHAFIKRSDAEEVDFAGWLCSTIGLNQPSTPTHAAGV
Method: as §3

[6] = test system: BMP6-induced SMAD1/5 phosphorylation; test: BMP6-induced SMAD1/5 phosphorylation in HepG2 cells (immunoblot); assay type: cell-based, human; conditions: HepG2, BMP6 50 ng/ml; higher concentrations
Method: For BMP stimulation, the HepG2 cells (∼50% confluency) were starved on serum-free medium for 6 h. Subsequently, prior to the addition of BMP ligands, the cells were treated with compound for 30 min. Next, the cells were stimulated with BMP2 (50 ng/ml) or BMP6 (50 ng/ml) for 45 min. The cells were then washed with PBS and lysed in Laemmli sample buffer for western blot analysis.
as §1

**Q.** For `CC(=O)C1=C(O)C=C2Oc3c(C(N)=O)c(O)cc(O)c3[C@]2(C)C1=O` [cercosporamide, Cercosporamide], which “effect on caALK2-induced SMAD1/5 phosphorylation” value [1] is on record?
**A.** Its value is “inhibited SMAD1/5 phosphorylation”.

**Q.** And the pIC50 [2]?
**A.** The pIC50 was 6.82.

**Q.** And the “effect on caALK3-induced SMAD1/5 phosphorylation” value [3]?
**A.** Its value is “inhibited SMAD1/5 phosphorylation”.

**Q.** What about the pIC50 [4] of the same compound?
**A.** Its pIC50 is 6.22.

**Q.** And the pIC50 [5]?
**A.** Its pIC50 is 5.39.

**Q.** What about the “effect on BMP6-induced SMAD1/5 phosphorylation” value [6] of the same compound?
**A.** Its value is “only minor inhibition”.
